According to ChEMBL document CHEMBL1201862, “PubChem BioAssay data set” (2004):
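Grown in 96-well plates, cells were treated for 48 hours with each compound at five concentrations. Insufficient inhibition: endpoint recorded as highest concentration tested. At the GI50, growth is halved.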 Calls of active or inactive are those of the source. No stated cut-off is given here; in the data, active = GI50 up to about 1.1 µM and inactive = higher.

Experiments:
Experiment in all cases: NCI-60 cell line screen, 48 h
A549 = tested on: A549
ACHN = tested on: ACHN
CCRF-CEM = tested on: CCRF-CEM
HCT-15 = tested on: HCT-15
HL-60 = tested on: HL-60
HOP-92 = tested on: HOP-92
IGROV-1 = tested on: IGROV-1
MCF7 = tested on: MCF7
MDA-MB-231 = tested on: MDA-MB-231
MDA-N = tested on: MDA-N
NCI-H460 = tested on: NCI-H460
NCI-H522 = tested on: NCI-H522
RPMI-8226 = tested on: RPMI-8226
SF-268 = tested on: SF-268
SF-295 = tested on: SF-295
SK-MEL-5 = tested on: SK-MEL-5
SR = tested on: SR
T47D = tested on: T47D
UACC-257 = tested on: UACC-257
UO-31 = tested on: UO-31

Row | Compound | GI50 (A549) | GI50 (ACHN) | GI50 (CCRF-CEM) | GI50 (HCT-15) | GI50 (HL-60) | GI50 (HOP-92) | GI50 (IGROV-1) | GI50 (MCF7) | GI50 (MDA-MB-231) | GI50 (MDA-N) | GI50 (NCI-H460) | GI50 (NCI-H522) | GI50 (RPMI-8226) | GI50 (SF-268) | GI50 (SF-295) | GI50 (SK-MEL-5) | GI50 (SR) | GI50 (T47D) | GI50 (UACC-257) | GI50 (UO-31)
1 | CN(C)c1ccc(/C=C/c2cc[n+](C)c3ccccc23)cc1 | 3.86 µM (inactive) | 6.43 µM (inactive) | 1.9 µM (inactive) | 29.9 µM | 0.748 µM (active) | 2.96 µM (inactive) | 5.16 µM (inactive) | 2.29 µM (inactive) | 5.94 µM (inactive) | 2.27 µM (inactive) | 2.9 µM (inactive) | 1.98 µM (inactive) | 2.95 µM (inactive) | 6.1 µM (inactive) | 3.84 µM (inactive) | 2.19 µM (inactive) | 0.698 µM (active) | 0.652 µM (active) | 1.2 µM (inactive) | 23.8 µM (inactive)
2 | O=C1/C(=C/c2ccco2)N=C(c2ccccc2)N1c1ccc(S(=O)(=O)Nc2nccs2)cc1 | 89.7 µM (inactive) | 74.6 µM (inactive) | 75.7 µM (inactive) | 28.9 µM | 89.9 µM (inactive) | 73.8 µM (inactive) | > 100 µM (inactive) | 61.4 µM (inactive) | > 100 µM (inactive) | > 100 µM (inactive) | 45.9 µM (inactive) | 30.9 µM (inactive) | 41.7 µM (inactive) | > 100 µM (inactive) | > 100 µM (inactive) | 87.9 µM (inactive) | > 100 µM (inactive) | 80.4 µM (inactive) | 27.6 µM (inactive) | 57.1 µM (inactive)
3 | COC1CC(C)(NC(C)=O)C2OC(c3ccccc3)OCC2O1 (stereo not given) | > 100 µM (inactive) | > 100 µM (inactive) | > 100 µM (inactive) | > 100 µM | > 100 µM (inactive) | > 100 µM (inactive) | > 100 µM (inactive) | > 100 µM (inactive) | > 100 µM (inactive) | > 100 µM (inactive) | > 100 µM (inactive) | > 100 µM (inactive) | > 100 µM (inactive) | > 100 µM (inactive) | > 100 µM (inactive) | > 100 µM (inactive) | > 100 µM (inactive) | > 100 µM (inactive) | > 100 µM (inactive) | > 100 µM (inactive)
4 | Cc1ccc2c(=O)cc(-c3ccc(-c4ccccc4)s3)[nH]c2n1 | 58.6 µM (inactive) | > 100 µM (inactive) | > 25.2 µM (inactive) | > 28.8 µM | > 23.6 µM (inactive) | > 41.2 µM (inactive) | 34.9 µM (inactive) | 3.27 µM (inactive) | 39.7 µM (inactive) | 4.98 µM (inactive) | > 59.7 µM (inactive) | > 19.7 µM (inactive) | 4.53 µM (inactive) | > 63 µM (inactive) | > 28.8 µM (inactive) | 2.87 µM (inactive) | 2.43 µM (inactive) | > 76.7 µM (inactive) | 8.47 µM (inactive) | 0.0305 µM (active)
5 | Cc1cc(-c2nc3ccc(F)cc3s2)ccc1NC(=O)C(N)CCCCN (stereo not given) | 2.64 µM (inactive) | 12.7 µM (inactive) | 2.71 µM (inactive) | 9.08 µM | 2.9 µM (inactive) | 8.2 µM (inactive) | 0.617 µM (active) | 0.0184 µM (active) | 9.38 µM (inactive) | 2.52 µM (inactive) | 1.82 µM (inactive) | 5.9 µM (inactive) | 3.31 µM (inactive) | 6.7 µM (inactive) | 6.93 µM (inactive) | 9.68 µM (inactive) | 1.96 µM (inactive) | 0.027 µM (active) | 12.8 µM (inactive) | 2.69 µM (inactive)
6 | OC(c1cc2ccccc2o1)c1cc2ccccc2s1 (stereo not given) | > 10 µM (inactive) | > 10 µM (inactive) | > 10 µM (inactive) | > 10 µM | > 10 µM (inactive) | > 10 µM (inactive) | > 10 µM (inactive) | 9.44 µM (inactive) | > 10 µM (inactive) | 3.94 µM (inactive) | > 10 µM (inactive) | > 10 µM (inactive) | > 10 µM (inactive) | > 10 µM (inactive) | > 10 µM (inactive) | > 10 µM (inactive) | > 10 µM (inactive) | > 10 µM (inactive) | > 10 µM (inactive) | > 10 µM (inactive)
7 | CC1(C)CCCCCCCCCC(C)(CCCCCCCCCCCCO)C1=O (stereo not given) | 16.1 µM (inactive) | 15 µM (inactive) | 17.4 µM (inactive) | 21.7 µM | 15.7 µM (inactive) | 16.9 µM (inactive) | 19.1 µM (inactive) | 16.8 µM (inactive) | 15.3 µM (inactive) | 18.6 µM (inactive) | 18.3 µM (inactive) | 16.5 µM (inactive) | 18.7 µM (inactive) | 17.3 µM (inactive) | 16.2 µM (inactive) | 19.5 µM (inactive) | 55.3 µM (inactive) | 16.8 µM (inactive) | 16.2 µM (inactive) | 18 µM (inactive)
8 | CCCCCCCCCCCCCCCCC(=O)NCC(=O)NCC(=O)NC(Cc1ccccc1)C(=O)Oc1ccc([N+](=O)[O-])cc1 (stereo not given) | > 10 µM (inactive) | > 100 µM (inactive) | 22 µM (inactive) | 19.1 µM | 50 µM (inactive) | 32.1 µM (inactive) | > 100 µM (inactive) | 48.4 µM (inactive) | 23.4 µM (inactive) | 48.5 µM (inactive) | 18.3 µM (inactive) | 26.7 µM (inactive) | 21 µM (inactive) | 23.3 µM (inactive) | 23 µM (inactive) | 21.6 µM (inactive) | 25 µM (inactive) | 30.7 µM (inactive) | 23.9 µM (inactive) | 67.9 µM (inactive)
9 | O=Cc1ccc2c(c1)CC1(C2)Cc2ccc3c(c2C1)CCC3 (stereo not given) | 37.8 µM (inactive) | 32.1 µM (inactive) | 5.14 µM (inactive) | 8.51 µM | 3.75 µM (inactive) | 17 µM (inactive) | 16.4 µM (inactive) | 4.43 µM (inactive) | 3.76 µM (inactive) | 2.19 µM (inactive) | 17.2 µM (inactive) | 34.8 µM (inactive) | 6.47 µM (inactive) | 12.9 µM (inactive) | 5.85 µM (inactive) | 4.81 µM (inactive) | 4.42 µM (inactive) | 18.2 µM (inactive) | 16 µM (inactive) | 11.9 µM (inactive)
10 | Cc1ccc2c(O)c3c(cc2c1)C(=O)c1c2c(cc(O)c1C3=O)C1(C)OC(O2)C(O)C(N(C)C)C1O (stereo not given) | 0.719 µM (active) | 0.605 µM (active) | 0.154 µM (active) | 0.614 µM | 0.155 µM (active) | 1.01 µM (active) | 0.912 µM (active) | 0.287 µM (active) | 1.33 µM (inactive) | 1.63 µM (inactive) | 0.109 µM (active) | 1.22 µM (inactive) | 0.29 µM (active) | 3.65 µM (inactive) | 1.09 µM (active) | 1.22 µM (inactive) | 0.0452 µM (active) | 0.656 µM (active) | 1.51 µM (inactive) | 1.27 µM (inactive)
11 | CCOC(=O)/C=C(\C(=O)OCC)n1cc(C)c(=O)n(Cc2cn(CCCCOC(C)=O)nn2)c1=O | 19.4 µM (inactive) | 4.28 µM (inactive) | 1.83 µM (inactive) | 6.37 µM | 2.27 µM (inactive) | 2.15 µM (inactive) | 13.6 µM (inactive) | 5.47 µM (inactive) | 15.7 µM (inactive) | 20.7 µM (inactive) | 8.18 µM (inactive) | 1.41 µM (inactive) | 7.35 µM (inactive) | 14.2 µM (inactive) | 18.4 µM (inactive) | 17.1 µM (inactive) | 3.05 µM (inactive) | 11.6 µM (inactive) | 16.1 µM (inactive) | 14.5 µM (inactive)
12 | CN(N=O)C(=O)Nc1ccc(C(=O)O)cc1 | > 100 µM (inactive) | > 100 µM (inactive) | > 100 µM (inactive) | > 100 µM | > 100 µM (inactive) | > 100 µM (inactive) | > 100 µM (inactive) | > 100 µM (inactive) | > 100 µM (inactive) | > 100 µM (inactive) | > 100 µM (inactive) | > 100 µM (inactive) | > 100 µM (inactive) | > 100 µM (inactive) | > 100 µM (inactive) | > 100 µM (inactive) | > 100 µM (inactive) | > 100 µM (inactive) | > 100 µM (inactive) | > 100 µM (inactive)
13 | O=C(CCCn1ccnc1[N+](=O)[O-])NCCn1cncc1[N+](=O)[O-] | > 100 µM (inactive) | > 100 µM (inactive) | > 100 µM (inactive) | > 100 µM | > 100 µM (inactive) | > 100 µM (inactive) | > 100 µM (inactive) | > 100 µM (inactive) | > 100 µM (inactive) | > 100 µM (inactive) | > 100 µM (inactive) | > 100 µM (inactive) | > 100 µM (inactive) | > 100 µM (inactive) | > 100 µM (inactive) | > 100 µM (inactive) | > 100 µM (inactive) | > 100 µM (inactive) | > 100 µM (inactive) | > 100 µM (inactive)
14 | CN(C)CCN1Nc2c3ccccc3nc3c(C(=O)NCCCN(C)CCCNC(=O)c4ccc5c6c(c7ccccc7nc46)NN5CCN(C)C)ccc1c23 | < 0.01 µM (active) | < 0.01 µM (active) | 0.0274 µM (active) | 0.178 µM | 0.012 µM (active) | 0.305 µM (active) | < 0.01 µM (active) | < 0.01 µM (active) | 0.0581 µM (active) | < 0.01 µM (active) | < 0.01 µM (active) | < 0.01 µM (active) | < 0.01 µM (active) | 0.0112 µM (active) | < 0.01 µM (active) | 0.0147 µM (active) | < 0.01 µM (active) | 0.153 µM (active) | 0.0224 µM (active) | 0.0692 µM (active)
